Laboratory results as given in ChEMBL document CHEMBL3046057, “Synthesis and leishmanicidal activity of quinolinetriclosan and quinolineeugenol hybrids” (Med Chem Res, 2012).
Values after ≈ are worked out from the molar mass of the structure shown.

How the values were obtained:
Leishmania panamensis [1] = assay: Leishmanicidal activity against axenic amastigote stage of Leishmania panamensis MHOM/CO/87/UA140epir GFP assessed as parasite viability after 72 hr by MTT assay; format: functional, organism-based
Leishmania panamensis [2] = assay: Leishmanicidal activity against intracellular amastigote stage of Leishmania panamensis MHOM/CO/87/UA140epir GFP infected in human U937 cells assessed as parasite viability after 72 hr by flow cytometric analysis; format: functional, organism-based, U-937
[3] = (§1) Cytotoxicity against Homo sapiens (human) U937 cells assessed as cell viability after 72 hr by MTT assay; format: cell-based, U-937; conditions: U937 cells, read-out: LC50
[4] = Selectivity index, ratio of LC50 for human U937 cells to EC50 for axenic amastigote stage of Leishmania panamensis MHOM/CO/87/UA140epir GFP; format: toxicity, cell-based, U-937; conditions: for selectivity ratio: U937 cells, axenic amastigotes of Leishmania panamensis, read-out: Selectivity Index
[5] = Selectivity index, ratio of LC50 for human U937 cells to EC50 for intracellular amastigote stage of Leishmania panamensis MHOM/CO/87/UA140epir GFP infected in human U937 cells; format: toxicity, cell-based, U-937; conditions: for selectivity ratio: read-out: Selectivity Index
U-937 = assay: as §1; format: cell-based; conditions: u-937, 72 h
[6] = Leishmania panamensis, MHOM/CO/87/UA140epir GFP, 72 h, read-out: EC50
[7] = Leishmania panamensis, MHOM/CO/87/UA140epir GFP, U-937, 72 h, read-out: EC50

| Molecule | EC50 (Leishmania panamensis [1]; [6]) [µg/mL] | EC50 (Leishmania panamensis [2]; [7]) [µg/mL] | CC50 at 72 h [3] [µg/mL] | selectivity ratio [4] | selectivity ratio [5] | EC50 (Leishmania panamensis [1]) [µg/mL] | EC50 (Leishmania panamensis [2]; u-937) [µg/mL] | LC50 (U-937) [µg/mL] | Selectivity Index ([4]; u-937) | Selectivity Index ([5]; u-937) |
| --- | --- | --- | --- | --- | --- | --- | --- | --- | --- | --- |
| Cc1ccc2cccc(OCCCOc3cc(Cl)ccc3Oc3ccc(Cl)cc3Cl)c2n1 | 23.6 (≈ 48.3 µM) | 6.4 (≈ 13.1 µM) | > 200 | > 8.5 | > 31.2 | – | – | – | – | – |
| Cc1ccc2cccc(O)c2n1 [8-HYDROXY QUINALDINE] | 2.6 (≈ 16.3 µM) | – | 7.6 (≈ 47.7 µM) | 2.9 | – | – | – | – | – | – |
| C=CCc1ccc(OCCCCCOc2cccc3ccc(C)nc23)c(OC)c1 | 9.5 (≈ 24.3 µM) | – | 10.5 (≈ 26.8 µM) | 1 | – | – | – | – | – | – |
| C=CCc1ccc(OCCCCCCCCCOc2cccc3ccc(C)nc23)c(OC)c1 | 21.1 (≈ 47.1 µM) | – | 14.1 (≈ 31.5 µM) | 0.7 | – | – | – | – | – | – |
| Cc1ccc2cccc(OCCCCCCCCOc3cc(Cl)ccc3Oc3ccc(Cl)cc3Cl)c2n1 | > 100 | – | > 200 | > 2 | – | – | – | – | – | – |
| Cc1ccc2cccc(OCCCCCCCCCCCCOc3cc(Cl)ccc3Oc3ccc(Cl)cc3Cl)c2n1 | > 100 | – | > 200 | > 2 | – | – | – | – | – | – |
| Cc1ccc2cccc(OCCCCCOc3cc(Cl)ccc3Oc3ccc(Cl)cc3Cl)c2n1 | 4.1 (≈ 7.93 µM) | 2.4 (≈ 4.64 µM) | 59.2 (≈ 115 µM) | 14.4 | 24.6 | – | – | – | – | – |
| Cc1ccc2cccc(OCCCCOc3cc(Cl)ccc3Oc3ccc(Cl)cc3Cl)c2n1 | 9.7 (≈ 19.3 µM) | > 100 | > 200 | > 20.6 | > 2 | – | – | – | – | – |
| Oc1cc(Cl)ccc1Oc1ccc(Cl)cc1Cl [TRICLOSAN] | 11.3 (≈ 39 µM) | – | 4.8 (≈ 16.6 µM) | 0.4 | – | – | – | – | – | – |
| C=CCc1ccc(OCCCCOc2cccc3ccc(C)nc23)c(OC)c1 | 38.9 (≈ 103 µM) | > 31.3 | 31.3 (≈ 82.9 µM) | 0.5 | < 1 | – | – | – | – | – |
| Cc1ccc2cccc(OCCCCCCCCCOc3cc(Cl)ccc3Oc3ccc(Cl)cc3Cl)c2n1 | > 100 | – | > 200 | > 2 | – | – | – | – | – | – |
| C=CCc1ccc(OCCCCCCCCOc2cccc3ccc(C)nc23)c(OC)c1 | 29.6 (≈ 68.3 µM) | 3.9 (≈ 8.99 µM) | 14.7 (≈ 33.9 µM) | 0.5 | 3.8 | – | – | – | – | – |
| C=CCc1ccc(OCCCCCCCCCCCCOc2cccc3ccc(C)nc23)c(OC)c1 | > 100 | 17.4 (≈ 35.5 µM) | 82.9 (≈ 169 µM) | – | 4.7 | – | – | – | – | – |
| C[C@@H]1[C@H](O)[C@@H](C)/C=C/C=C/C=C/C=C/C=C/C=C/C=C/[C@H](O[C@@H]2O[C@H](C)[C@@H](O)[C@H](N)[C@@H]2O)C[C@@H]2O[C@](O)(C[C@@H](O)C[C@@H](O)[C@H](O)CC[C@@H](O)C[C@@H](O)CC(=O)O[C@H]1C)C[C@H](O)[C@H]2C(=O)O [AMPHOTERICIN B] | 0.05 (≈ 0.0541 µM) | 0.04 (≈ 0.0433 µM) | 38.8 (≈ 42 µM) | 776 | 970 | – | – | – | – | – |
| C=CCc1ccc(OCCCOc2cccc3ccc(C)nc23)c(OC)c1 | 6.9 (≈ 19 µM) | – | 6.8 (≈ 18.7 µM) | 1 | – | – | – | – | – | – |
| MEGLUMINE ANTIMONATE | – | – | – | – | – | > 1000 | 6.8 | > 1000 | > 1 | > 147.05 |
| C=CCc1ccc(O)c(OC)c1 [EUGENOL] | 21.4 (≈ 130 µM) | – | 14.2 (≈ 86.5 µM) | 0.7 | – | – | – | – | – | – |
